Measurements reported in patent EP1247803A2, “Indolinone compounds suitable for modulation of protein kinases” (Sugen, Inc., priority 1996, dated 1998).

How the values were obtained:
MET = MET biochemical kinase assay; parameters: species or system human; concentration or dose not given beside the values
Outline: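 Plates coated with anti-rabbit Fc bind a rabbit anti-MET antibody that captures receptor from cell lysates; unbound protein is washed off before compound and ATP-containing kinase buffer go in.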

EGFR = molecular target: T1, EGFR (Homo sapiens, UniProt P00533); test: EGFR ELISA assay (in vitro kinase activity, EGFR captured from A431 cell lysate); format: biochemical; parameters: concentration or dose not given beside the values
T1 construct: Add 7 ug A431 cell lysate per well (EGFR source); endogenous in cells; host or cells: A431
T1 sequence (P00533 25-1210): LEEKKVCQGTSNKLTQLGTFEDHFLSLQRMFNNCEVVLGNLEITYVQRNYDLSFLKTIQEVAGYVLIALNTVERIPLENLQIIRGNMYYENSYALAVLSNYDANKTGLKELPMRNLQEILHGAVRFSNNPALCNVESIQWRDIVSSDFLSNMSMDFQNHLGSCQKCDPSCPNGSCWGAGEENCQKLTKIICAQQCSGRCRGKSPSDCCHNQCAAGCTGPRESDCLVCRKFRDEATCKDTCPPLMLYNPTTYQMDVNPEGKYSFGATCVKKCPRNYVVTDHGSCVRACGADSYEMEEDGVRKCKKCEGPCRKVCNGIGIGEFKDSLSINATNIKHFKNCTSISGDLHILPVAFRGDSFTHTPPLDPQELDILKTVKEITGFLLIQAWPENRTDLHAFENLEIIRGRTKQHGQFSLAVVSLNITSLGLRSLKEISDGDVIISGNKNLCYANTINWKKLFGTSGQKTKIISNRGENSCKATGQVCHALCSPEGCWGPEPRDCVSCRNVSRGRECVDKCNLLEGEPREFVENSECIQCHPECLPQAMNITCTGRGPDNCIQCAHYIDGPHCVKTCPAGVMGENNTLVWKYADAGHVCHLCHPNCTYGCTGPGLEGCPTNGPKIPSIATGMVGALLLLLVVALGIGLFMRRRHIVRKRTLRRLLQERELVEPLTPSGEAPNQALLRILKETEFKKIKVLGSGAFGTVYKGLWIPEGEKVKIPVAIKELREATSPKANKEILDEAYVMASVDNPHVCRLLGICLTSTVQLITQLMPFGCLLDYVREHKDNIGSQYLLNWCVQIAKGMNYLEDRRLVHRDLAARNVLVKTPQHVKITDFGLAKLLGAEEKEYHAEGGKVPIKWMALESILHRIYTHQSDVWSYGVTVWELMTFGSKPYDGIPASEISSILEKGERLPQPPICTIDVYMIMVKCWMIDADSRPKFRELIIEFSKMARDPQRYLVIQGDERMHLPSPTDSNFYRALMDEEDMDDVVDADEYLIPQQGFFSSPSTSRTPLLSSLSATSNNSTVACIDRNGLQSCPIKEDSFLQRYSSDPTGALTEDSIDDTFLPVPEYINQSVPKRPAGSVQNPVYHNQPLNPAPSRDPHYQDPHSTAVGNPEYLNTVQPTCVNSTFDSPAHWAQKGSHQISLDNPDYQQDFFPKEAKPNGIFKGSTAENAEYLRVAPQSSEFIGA
Outline: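 EGFR from A431 lysate was captured on anti-EGFR antibody-coated plates and preincubated with compounds for 30 min. Autophosphorylation ran 5 min with 3 uM ATP and 5 mM MnCl2 (final), stopped with 20 mM EDTA. Phosphotyrosine was detected by anti-pTyr ELISA with ABTS/H2O2, read at 410 nm.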

## Cc1cc(C)c(C=C2C(=O)Nc3ccc(S(=O)(=O)N4CCOCC4)cc32)[nH]1 [10721/F08]
MET
  Met Kinase % Inhibition: 76.1%
EGFR
  Biochem EGFR %Inhibition: 37.3%

## Cc1cc(C=C2C(=O)Nc3c(Br)cc(Br)cc32)cc(C)c1O [10722/A07]
MET
  Met Kinase % Inhibition: 64.1%
EGFR
  Biochem EGFR %Inhibition: 29.9%

## Cc1cc(C=C2C(=O)Nc3ccc(S(=O)(=O)Nc4ccc(C(F)(F)F)cc4)cc32)sc1C [10721/E04]
MET
  Met Kinase % Inhibition: 87.3%
EGFR
  Biochem EGFR %Inhibition: 48.5%

## O=C1Nc2ccc(I)cc2C1=Cc1ccc(F)cc1F [10722/B06]
MET
  Met Kinase % Inhibition: 72.6%
EGFR
  Biochem EGFR %Inhibition: -4.9%

## O=C1Nc2c(Br)cc(Br)cc2C1=Cc1ccc([N+](=O)[O-])s1 [10722/A04]
MET
  Met Kinase % Inhibition: 51.4%
EGFR
  Biochem EGFR %Inhibition: 21.0%

## Cc1cc(C=C2C(=O)Nc3ccc(S(=O)(=O)N4CCOCC4)cc32)sc1C [10721/F04]
MET
  Met Kinase % Inhibition: 26.0%
EGFR
  Biochem EGFR %Inhibition: 0.0%

## O=C1Nc2ccc(I)cc2C1=Cc1c(O)cc(O)cc1O [10722/B03]
MET
  Met Kinase % Inhibition: 40.1%
EGFR
  Biochem EGFR %Inhibition: 19.6%

## CC(C)(C)c1cc(C=C2C(=O)Nc3ccc(I)cc32)cc(Cl)c1O [10722/B08]
MET
  Met Kinase % Inhibition: 72.0%
EGFR
  Biochem EGFR %Inhibition: 0.5%

## CC(C)(C)c1cc(C=C2C(=O)Nc3c(Br)cc(Br)cc32)cc(Cl)c1O [10722/A08]
MET
  Met Kinase % Inhibition: 70.5%
EGFR
  Biochem EGFR %Inhibition: 23.9%

## Cc1cc(C=C2C(=O)Nc3ccc(S(=O)(=O)Nc4ccc(C(F)(F)F)cc4)cc32)cc(C)c1O [10722/E07]
MET
  Met Kinase % Inhibition: 71.6%
EGFR
  Biochem EGFR %Inhibition: 28.7%

## CC(C)(C)c1cc(C=C2C(=O)Nc3ccc(S(=O)(=O)Nc4ccc(C(F)(F)F)cc4)cc32)cc([N+](=O)[O-])c1O [10722/E02]
MET
  Met Kinase % Inhibition: 71.1%
EGFR
  Biochem EGFR %Inhibition: 22.2%

## CNS(=O)(=O)c1ccc2c(c1)C(=Cc1ccc(F)cc1F)C(=O)N2 [10722/D06]
MET
  Met Kinase % Inhibition: 32.4%
EGFR
  Biochem EGFR %Inhibition: -2.5%

## O=C1Nc2ccc(S(=O)(=O)N3CCOCC3)cc2C1=Cc1cc2c([nH]1)CCCC2 [10721/F05]
MET
  Met Kinase % Inhibition: 67.8%
EGFR
  Biochem EGFR %Inhibition: 20.5%

## O=C1Nc2ccc(I)cc2C1=Cc1ccc(C(F)(F)F)cc1 [10722/B11]
MET
  Met Kinase % Inhibition: 83.0%
EGFR
  Biochem EGFR %Inhibition: -15.5%

## O=C1Nc2c(Br)cc(Br)cc2C1=Cc1ccc(C(F)(F)F)cc1 [10722/A11]
MET
  Met Kinase % Inhibition: 68.6%
EGFR
  Biochem EGFR %Inhibition: -0.1%

## CNS(=O)(=O)c1ccc2c(c1)C(=Cc1ccc(C(=O)O)cc1)C(=O)N2 [10722/D05]
MET
  Met Kinase % Inhibition: 35.8%
EGFR
  Biochem EGFR %Inhibition: -3.8%

## CNS(=O)(=O)c1ccc2c(c1)C(=Cc1cc(Br)c(O)c(C(C)(C)C)c1)C(=O)N2 [10721/D10]
MET
  Met Kinase % Inhibition: 13.4%
EGFR
  Biochem EGFR %Inhibition: 3.3%

## O=C1Nc2ccc(S(=O)(=O)Nc3ccc(C(F)(F)F)cc3)cc2C1=Cc1ccc(C(F)(F)F)cc1 [10722/E11]
MET
  Met Kinase % Inhibition: 84.0%
EGFR
  Biochem EGFR %Inhibition: 4.2%

## O=C1Nc2c(Br)cc(Br)cc2C1=Cc1c(O)cc(O)cc1O [10722/A03]
MET
  Met Kinase % Inhibition: 90.3%
EGFR
  Biochem EGFR %Inhibition: 0.8%

## O=C1Nc2ccc(S(=O)(=O)Nc3ccc(C(F)(F)F)cc3)cc2C1=Cc1cc2c([nH]1)CCCC2 [10721/E05]
MET
  Met Kinase % Inhibition: 69.9%
EGFR
  Biochem EGFR %Inhibition: 61.3%

## O=C1Nc2ccc(CCCl)cc2C1=Cc1ccc(Cl)s1 [10721/G07]
MET
  Met Kinase % Inhibition: 10.0%
EGFR
  Biochem EGFR %Inhibition: 14.7%

## O=C1Nc2ccc(S(=O)(=O)N3CCOCC3)cc2C1=Cc1ccc(Cl)s1 [10721/F07]
MET
  Met Kinase % Inhibition: 55.7%
EGFR
  Biochem EGFR %Inhibition: 3.5%

## CC(C)(C)c1cc(C=C2C(=O)Nc3ccc(S(=O)(=O)Nc4ccc(C(F)(F)F)cc4)cc32)cc(Cl)c1O [10722/E08]
MET
  Met Kinase % Inhibition: 82.8%
EGFR
  Biochem EGFR %Inhibition: 10.4%

## Cc1cc(C)c(C=C2C(=O)Nc3ccc(S(=O)(=O)Nc4ccc(C(F)(F)F)cc4)cc32)[nH]1 [10721/E08]
MET
  Met Kinase % Inhibition: 39.5%
EGFR
  Biochem EGFR %Inhibition: 29.8%

## O=C1Nc2ccc(S(=O)(=O)Nc3ccc(C(F)(F)F)cc3)cc2C1=Cc1ccc(F)cc1F [10722/E06]
MET
  Met Kinase % Inhibition: 71.6%
EGFR
  Biochem EGFR %Inhibition: 7.6%

## Cn1cc(Cl)c(C=C2C(=O)Nc3ccc(S(=O)(=O)N4CCOCC4)cc32)n1 [10721/F03]
MET
  Met Kinase % Inhibition: 40.6%
EGFR
  Biochem EGFR %Inhibition: 7.0%

## CC(C)(C)c1cc(C=C2C(=O)Nc3ccc(S(=O)(=O)N4CCOCC4)cc32)ccc1O [10721/F09]
MET
  Met Kinase % Inhibition: 52.5%
EGFR
  Biochem EGFR %Inhibition: 7.0%

## Cn1cc(Cl)c(C=C2C(=O)Nc3ccc(S(=O)(=O)Nc4ccc(C(F)(F)F)cc4)cc32)n1 [10721/E03]
MET
  Met Kinase % Inhibition: 12.3%
EGFR
  Biochem EGFR %Inhibition: 25.1%

## CCCCN(CCCC)c1ccc(C=C2C(=O)Nc3c(Br)cc(Br)cc32)cc1 [10722/A10]
MET
  Met Kinase % Inhibition: 79.0%
EGFR
  Biochem EGFR %Inhibition: -4.2%

## CC(C)(C)c1cc(C=C2C(=O)Nc3ccc(CCCl)cc32)ccc1O [10721/G09]
MET
  Met Kinase % Inhibition: 5.1%
EGFR
  Biochem EGFR %Inhibition: 14.9%

## Cc1cc(C)c(C=C2C(=O)Nc3ccc(CCCl)cc32)[nH]1 [10721/G08]
MET
  Met Kinase % Inhibition: -2.4%
EGFR
  Biochem EGFR %Inhibition: 12.8%

## CC(C)(C)c1cc(C=C2C(=O)Nc3ccc(S(=O)(=O)Nc4ccc(C(F)(F)F)cc4)cc32)cc(C(C)(C)C)c1O [10721/E11]
MET
  Met Kinase % Inhibition: 31.3%
EGFR
  Biochem EGFR %Inhibition: 32.1%

## CNS(=O)(=O)c1ccc2c(c1)C(=Cc1ccc([N+](=O)[O-])s1)C(=O)N2 [10722/D04]
MET
  Met Kinase % Inhibition: 63.4%
EGFR
  Biochem EGFR %Inhibition: 20.3%

## CC(C)(C)c1cc(C=C2C(=O)Nc3c(Br)cc(Br)cc32)cc([N+](=O)[O-])c1O [10722/A02]
MET
  Met Kinase % Inhibition: 44.9%
EGFR
  Biochem EGFR %Inhibition: 23.7%

## CNS(=O)(=O)c1ccc2c(c1)C(=Cc1ccc(F)cc1)C(=O)N2 [10717/D05]
MET
  Met Kinase % Inhibition: 23.8%
EGFR
  Biochem EGFR %Inhibition: -2.8%

## CC(C)(C)c1cc(C=C2C(=O)Nc3ccc(S(=O)(=O)Nc4ccc(C(F)(F)F)cc4)cc32)cc(Br)c1O [10721/E10]
MET
  Met Kinase % Inhibition: 55.7%
EGFR
  Biochem EGFR %Inhibition: 19.9%

## CCCCN(CCCC)c1ccc(C=C2C(=O)Nc3ccc(I)cc32)cc1 [10722/B10]
MET
  Met Kinase % Inhibition: 56.4%
EGFR
  Biochem EGFR %Inhibition: -11.3%

## CC(C)(C)c1cc(C=C2C(=O)Nc3ccc(S(=O)(=O)N4CCOCC4)cc32)cc(C(C)(C)C)c1O [10721/F11]
MET
  Met Kinase % Inhibition: 78.2%
EGFR
  Biochem EGFR %Inhibition: 95.9%

## CC(C)(C)c1cc(C=C2C(=O)Nc3ccc(S(=O)(=O)N4CCOCC4)cc32)cc(Br)c1O [10721/F10]
MET
  Met Kinase % Inhibition: 79.9%
EGFR
  Biochem EGFR %Inhibition: 7.5%

## CCCCN(CCCC)c1ccc(C=C2C(=O)Nc3ccc(S(=O)(=O)Nc4ccc(C(F)(F)F)cc4)cc32)cc1 [10722/E10]
MET
  Met Kinase % Inhibition: 86.6%
EGFR
  Biochem EGFR %Inhibition: -13.3%

## O=C1Nc2ccc(I)cc2C1=Cc1ccc(C(=O)O)cc1 [10722/B05]
MET
  Met Kinase % Inhibition: 67.2%
EGFR
  Biochem EGFR %Inhibition: 9.3%

## Cn1c(C=C2C(=O)Nc3ccc(S(=O)(=O)Nc4ccc(C(F)(F)F)cc4)cc32)nc2ccccc21 [10721/E02]
MET
  Met Kinase % Inhibition: 38.8%
EGFR
  Biochem EGFR %Inhibition: -9.5%

## CNS(=O)(=O)c1ccc2c(c1)C(=Cc1cc(Cl)c(O)c(C(C)(C)C)c1)C(=O)N2 [10722/D08]
MET
  Met Kinase % Inhibition: 60.5%
EGFR
  Biochem EGFR %Inhibition: -2.6%

## Cn1c(C=C2C(=O)Nc3ccc(S(=O)(=O)N4CCOCC4)cc32)nc2ccccc21 [10721/F02]
MET
  Met Kinase % Inhibition: 27.8%
EGFR
  Biochem EGFR %Inhibition: 11.0%

## O=C1Nc2ccc(S(=O)(=O)Nc3ccc(C(F)(F)F)cc3)cc2C1=Cc1ccc([N+](=O)[O-])s1 [10722/E04]
MET
  Met Kinase % Inhibition: 52.6%
EGFR
  Biochem EGFR %Inhibition: 1.4%

## CNS(=O)(=O)c1ccc2c(c1)C(=Cc1cc(C(C)(C)C)c(O)c(C(C)(C)C)c1)C(=O)N2 [10721/D11]
MET
  Met Kinase % Inhibition: 23.2%
EGFR
  Biochem EGFR %Inhibition: 22.2%

## Cn1cc(Cl)c(C=C2C(=O)Nc3ccc(CCCl)cc32)n1 [10721/G03]
MET
  Met Kinase % Inhibition: 25.3%
EGFR
  Biochem EGFR %Inhibition: 23.4%

## O=C1Nc2c(Br)cc(Br)cc2C1=Cc1ccc(F)cc1F [10722/A06]
MET
  Met Kinase % Inhibition: 71.6%
EGFR
  Biochem EGFR %Inhibition: 28.4%

## CNS(=O)(=O)c1ccc2c(c1)C(=Cc1cc([N+](=O)[O-])c(O)c(C(C)(C)C)c1)C(=O)N2 [10722/D02]
MET
  Met Kinase % Inhibition: 26.4%
EGFR
  Biochem EGFR %Inhibition: 26.1%

## CNS(=O)(=O)c1ccc2c(c1)C(=Cc1ccc(Br)cc1)C(=O)N2 [10717/D08]
MET
  Met Kinase % Inhibition: 16.0%
EGFR
  Biochem EGFR %Inhibition: -7.8%

## CNS(=O)(=O)c1ccc2c(c1)C(=Cc1cc(C)c(O)c(C)c1)C(=O)N2 [10722/D07]
MET
  Met Kinase % Inhibition: 42.6%
EGFR
  Biochem EGFR %Inhibition: -2.8%

## O=C1Nc2ccc(S(=O)(=O)Nc3ccc(C(F)(F)F)cc3)cc2C1=Cc1cc([N+](=O)[O-])cc(CCl)c1O [10721/E06]
MET
  Met Kinase % Inhibition: 81.0%
EGFR
  Biochem EGFR %Inhibition: 91.5%

## O=C1Nc2ccc(S(=O)(=O)N3CCOCC3)cc2C1=Cc1cc([N+](=O)[O-])cc(CCl)c1O [10721/F06]
MET
  Met Kinase % Inhibition: 80.3%
EGFR
  Biochem EGFR %Inhibition: 21.7%

## O=C1Nc2ccc(CCCl)cc2C1=Cc1cc([N+](=O)[O-])cc(CCl)c1O [10721/G06]
MET
  Met Kinase % Inhibition: 39.5%
EGFR
  Biochem EGFR %Inhibition: 23.2%

## O=C1Nc2c(Br)cc(Br)cc2C1=Cc1csc([N+](=O)[O-])c1 [10722/A09]
MET
  Met Kinase % Inhibition: 86.5%
EGFR
  Biochem EGFR %Inhibition: 16.8%

## CNS(=O)(=O)c1ccc2c(c1)C(=Cc1cccs1)C(=O)N2 [10717/D03]
MET
  Met Kinase % Inhibition: 11.1%
EGFR
  Biochem EGFR %Inhibition: -1.4%
